Earlier results, collected in patent publication US20260256747A1, “ARYL-TRIAZOLYL AND RELATED GPR84 ANTAGONISTS AND USES THEREOF” (Liminal BioSciences Limited, priority 2022, published 2026).

Tested on: mouse dextran sodium sulfate-induced chronic inflammatory bowel disease model
Settings: once-daily doses of 3 and 10 mg/kg; efficacy similar to sulfasalazine; cited from earlier work

In the case of `O=c1nc(OC[C@@H]2COCCO2)cc2n1CCc1cc(C#CC3CC3)ccc1-2` [GLPG1205], the “disease activity index score” value is given as “reduced” and the neutrophil infiltration is given as “reduced”.
